US20220315572A1, “SUBSTITUTED CYANOPYRROLIDINES WITH ACTIVITY AS USP30 INHIBITORS” (MISSION THERAPEUTICS LIMITED, priority 2019, published 2022)
≈ marks a conversion by molar mass, not a printed value.

Tests used:
UUO injured kidneys = test: Unilateral ureteral obstructive kidney disease model (UUO); type: in vivo, C57BL/6 mice; settings: 10 days
Description: (f) The unilateral ureteral obstructive kidney disease model (UUO). [Chevalier et al, 2009, Kidney Int 75(11): 1145-1152] UUO causes renal injury characterised by tubular cell injury, interstitial inflammation and fibrosis. It serves as a model of irreversible post-renal acute kidney injury (AKI). Experimental UUO has illustrated the molecular mechanisms of apoptosis, inflammation and fibrosis, all of which are key processes in renal injury, regardless of the primary insult. Consequently, the UUO model provides investigators information beyond obstruction. Example 1 was assessed in the UUO model to determine the ability of the compound to attenuate progressive tubulointerstitial fibrosis and chronic kidney disease (CKD). On day 1 of the study, adult C57BL/6 mice were dosed by oral gavage according to one of the following dosing regimens; Vehicle or 5 mg/kg Example 1 BID. Two hours post dosing on day 1 study mice underwent surgery to ligate the left ureter at two points. Successful UUO surgery was later confirmed by observation of dilation of renal pelvis due to hydronephrosis. The animals were dosed according to their prescribed regimen for 10 days at which point kidneys were harvested, or histopathology assessment and for protein/RNA assessment. […]

TK6 cells = test: In vitro micronucleus assay; type: cell-based; settings: 27 hours recovery
Method: The micronucleus assay may be used to determine if a compound is genotoxic by evaluating the presence of micronuclei. Micronuclei may contain chromosome fragments produced from DNA breakage (clastogens) or whole chromosomes produced by disruption of the mitotic apparatus (aneugens).
(§1) Example 1 was assessed in the bacterial reverse mutation assay (Ames) and in vitro micronucleus assay. All in vitro tests were conducted with and without exogenous metabolic activation using concentrations up to those limited by cytotoxicity or insolubility.
Induction of chromosome damage was assessed using the in vitro micronucleus assay in TK6 cells. Example 1 was negative for induction of micronuclei when incubated for 3 hours in the presence of exogenous metabolic activation followed by 27 hours recovery, and also when incubated for 27 hours in the absence of exogenous metabolic activation followed by 27 hours recovery.

[1] = test system: UCHL1, USP2, USP4, USP8, USP10, USP12/UAF1, USP15, USP16, USP21, USP22, USP25, USP28, USP35, USP36, USP46/UAF1; test: DUB biochemical IC50 assays, off-target panel; settings: bound over all 15 DUBs listed
[2] = test system: Salmonella typhimurium strains TA98, TA100, TA1535 and TA97a and the Escherichia Coli strain WP2 uvrA pKM101; test: Bacterial reverse mutation assay (Ames); settings: up to 100 μg/well (equivalent to 5000 μg/plate), with and without metabolic activation
Method: The bacterial reverse mutation assay (Ames Test) may be used to evaluate the mutagenic properties of compounds of the invention, commonly by using the bacterial strain Salmonella typhimurium, which is mutant for the biosynthesis of the amino acid histidine.
as §1

Turbidimetric solubility = type: physicochemical; settings: aqueous buffer, kinetic from dmso stock
Description: Turbidimetric solubility: Test compound solution prepared in DMSO diluted into aqueous buffer.
Turbidimetry is used as the end-point by measuring absorbance at 620 nm.

Hepatocyte Cl mouse = type: in vitro ADME; settings: mouse hepatocytes
Method: Hep Cl mouse: in vitro hepatocyte clearance in mouse cells.
Clu: in vitro clearance. Clu as defined here is the scaled clearance, in turn calculated from the intrinsic clearance. The intrinsic clearance is the predicted clearance due to hepatic metabolic reactions, determined from incubation of a compound in a hepatocyte preparation.

FaSSIF solubility = type: physicochemical; settings: simulated intestinal fluid, fasted state
Description: FaSSIF: simulated intestinal fluid in fasted state measured at pH 6.5.

USP30 = target: T1, USP30 (Mus musculus, UniProt Q3UN04); test: USP30 kidney tissue target engagement assay (TE ex vivo); type: in vivo; settings: Mouse kidney 10 mg/kg PO
T1 construct: brain or kidney tissue samples from compound-dosed animals; from tissue; host or cells: kidney
T1 sequence (Q3UN04 1-517): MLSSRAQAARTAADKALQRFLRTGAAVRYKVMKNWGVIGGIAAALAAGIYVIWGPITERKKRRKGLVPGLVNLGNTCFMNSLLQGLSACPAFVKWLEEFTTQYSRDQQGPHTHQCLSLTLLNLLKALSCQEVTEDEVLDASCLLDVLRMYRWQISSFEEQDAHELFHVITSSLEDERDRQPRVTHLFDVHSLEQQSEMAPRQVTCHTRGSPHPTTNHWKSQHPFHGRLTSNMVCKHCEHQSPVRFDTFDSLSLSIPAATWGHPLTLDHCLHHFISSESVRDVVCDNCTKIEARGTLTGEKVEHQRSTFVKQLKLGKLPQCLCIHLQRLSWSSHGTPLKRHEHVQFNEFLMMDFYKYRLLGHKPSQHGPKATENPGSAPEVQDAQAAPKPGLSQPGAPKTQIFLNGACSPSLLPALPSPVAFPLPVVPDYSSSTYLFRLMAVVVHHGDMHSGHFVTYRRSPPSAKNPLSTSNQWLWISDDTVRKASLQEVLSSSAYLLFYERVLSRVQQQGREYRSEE
Method: 50 to 100 mg of tissue was homogenised in 3× volume of lysis buffer (50 mM Tris, pH 7.5, 50 mM NaCl, 0.1% NP-40/Igepal CA-630, 0.5% CHAPS, 2 mM MgCl2, 5 mM beta-mercaptoethanol, cOmplete mini tablets EDTA free (Roche), PhosStop tablets (Roche)) using a Retch Mixer Mill (MM400). Lysate containing 60 μg protein was incubated with a final conc of 6 μM of HA-Ahx-Ahx-Ub-VME probe for 15 mins at room temperature. The reaction was stopped by addition of 5×SDS sample loading buffer and proteins separated by SDS-PAGE and western blotting. USP30 was detected using an anti-USP30 Sheep S746D antibody (MRC PPU Reagents and Services) and a rabbit anti sheep secondary IgG (H+L) horseradish peroxidase conjugated (Thermo #31480) and visualised using ECL reagent (GE #RPN2109) on a GE LAS4000 imager. Target engagement was measured by quantitation of the bands corresponding to USP30 and USP30 bound to the Ub-VME probe and expression of this proportion compared to vehicle treated control.
TE ex vivo: USP30 kidney tissue target engagement assay.

[3] = Plasma free fraction, equilibrium dialysis; type: in vitro ADME; settings: mouse plasma; read-out: Binding Mouse Plasma fu, p
Description: Plasma fu,p: The free fraction of a compound in plasma preparation determined by in vitro equilibrium dialysis. It is understood that only unbound (free) compound is capable of engaging with the target.

With `C[C@@H]1C[C@@H](NC(=O)c2nnc(-c3cccc(C#N)c3)o2)CN1C#N` [Example 1, N-((3R,5R)-1-Cyano-5-methylpyrrolidin-3-yl)-5-(3-cyanophenyl)-1,3,4-oxadiazole-2-carboxamide] as the compound, how does the “α-SMA levels in UUO injured kidneys” value (UUO injured kidneys; 5 mg/kg oral BID, compared to vehicle treated controls) read?
Its value is “statistically reduced α-SMA levels”.

What about the “collagen deposition, picrosirius red staining in ligated kidneys” value (UUO injured kidneys; 5 mg/kg p.o. BID) of the same compound?
Its value is “statistically reduced collagen deposition”.

What about the induction of micronuclei (TK6 cells; 3 hours in the presence of exogenous metabolic activation) of the same compound?
The induction of micronuclei was “negative”.

And the induction of micronuclei (TK6 cells; 27 hours in the absence of exogenous metabolic activation)?
The induction of micronuclei was “negative”.

What about the IC50 [1] of the same compound?
The IC50 was ≥ 5.8 µM.

And the “induction of mutations, reverse mutation assay” value [2]?
The value was “did not induce mutations”.

And the solubility (Turbidimetric solubility)?
Its solubility is 65 µM (≈ 21 µg/mL).

And the “Hepatocyte Cl mouse scaled Clu” value (Hepatocyte Cl mouse)?
Its value is 45 mL/min/kg.

What about the “FaSSIF (μM) measured at pH 6.5” value (FaSSIF solubility) of the same compound?
Its value is 415 μM.

What about the “TE ex vivo TE % occupancy” value (USP30; 1 h post-dose) of the same compound?
The value was 94%.

What about the “TE ex vivo TE % occupancy” value (USP30; 4 h post-dose) of the same compound?
The value was 89%.

What about the “TE ex vivo TE % occupancy” value (USP30; 8 h post-dose) of the same compound?
Its value is 79%.

And the “TE ex vivo TE % occupancy” value (USP30; 12 h post-dose)?
Its value is 8%.

And the fraction unbound [3]?
The fraction unbound was 0.54.
